The text below walks through data of patent US6489352B2, “Conformationally constrained compounds as pharmaceutical agents” (Warner-Lambert Company, priority 1998, dated 2002).

Data set [1] deals with T1, α2δ subunit derived from porcine brain tissue (Sus scrofa, UniProt A0A287BIN3).
T1 construct: the α2δ subunit derived from porcine brain tissue was used; from tissue; host or cells: porcine brain tissue
The experiment in a line: radioligand binding assay using [3H]gabapentin and the α2δ subunit. The settings on record: read-out: IC50 (μM) at α2δ Binding Site.

The test system of data set [2] is carrageenin-induced hyperalgesia in the rat paw. The experiment in a line: Carrageenin-induced hyperalgesia, rat paw pressure test (Randall-Selitto). In kind it is in vivo, rat (male Sprague-Dawley). The settings on record: dosed orally at 30 mg/kg. How it is done: Carrageenin-Induced Hyperalgesia
Nociceptive pressure thresholds were measured in the rat paw pressure test using an analgesimeter (Randall-Selitto method: Randall L. O. and Selitto J. J., “A method for measurement of analgesic activity on inflamed tissue,” Arch. Int. Pharmacodyn., 1957;4:409-419). Male Sprague-Dawley rats (70-90 g) were trained on this apparatus before the test day. Pressure was gradually applied to the hind paw of each rat and nociceptive thresholds were determined as the pressure (g) required to elicit paw withdrawal. A cutoff point of 250 g was used to prevent any tissue damage to the paw. On the test day, two to three baseline measurements were taken before animals were administered 100 μL of 2% carrageenin by intraplantar injection into the right hind paw.
(R)-2-Aza-spiro[4.5]decane-4-carboxylic acid hydrochloride was tested in the above carrageenan-induced hyperalgesia model. The compound was dosed orally at 30 mg/kg, and 1 hour postdose gave a percent of maximum possible effect (MPE) of 53%. At 2 hours postdose, it gave only 4.6% of MPE.
A general note: The carrageenan paw model is a standard test of acute inflammation.

Structures can show the parent of a compound that is named as a salt.

T1 sequence (A0A287BIN3 25-1109): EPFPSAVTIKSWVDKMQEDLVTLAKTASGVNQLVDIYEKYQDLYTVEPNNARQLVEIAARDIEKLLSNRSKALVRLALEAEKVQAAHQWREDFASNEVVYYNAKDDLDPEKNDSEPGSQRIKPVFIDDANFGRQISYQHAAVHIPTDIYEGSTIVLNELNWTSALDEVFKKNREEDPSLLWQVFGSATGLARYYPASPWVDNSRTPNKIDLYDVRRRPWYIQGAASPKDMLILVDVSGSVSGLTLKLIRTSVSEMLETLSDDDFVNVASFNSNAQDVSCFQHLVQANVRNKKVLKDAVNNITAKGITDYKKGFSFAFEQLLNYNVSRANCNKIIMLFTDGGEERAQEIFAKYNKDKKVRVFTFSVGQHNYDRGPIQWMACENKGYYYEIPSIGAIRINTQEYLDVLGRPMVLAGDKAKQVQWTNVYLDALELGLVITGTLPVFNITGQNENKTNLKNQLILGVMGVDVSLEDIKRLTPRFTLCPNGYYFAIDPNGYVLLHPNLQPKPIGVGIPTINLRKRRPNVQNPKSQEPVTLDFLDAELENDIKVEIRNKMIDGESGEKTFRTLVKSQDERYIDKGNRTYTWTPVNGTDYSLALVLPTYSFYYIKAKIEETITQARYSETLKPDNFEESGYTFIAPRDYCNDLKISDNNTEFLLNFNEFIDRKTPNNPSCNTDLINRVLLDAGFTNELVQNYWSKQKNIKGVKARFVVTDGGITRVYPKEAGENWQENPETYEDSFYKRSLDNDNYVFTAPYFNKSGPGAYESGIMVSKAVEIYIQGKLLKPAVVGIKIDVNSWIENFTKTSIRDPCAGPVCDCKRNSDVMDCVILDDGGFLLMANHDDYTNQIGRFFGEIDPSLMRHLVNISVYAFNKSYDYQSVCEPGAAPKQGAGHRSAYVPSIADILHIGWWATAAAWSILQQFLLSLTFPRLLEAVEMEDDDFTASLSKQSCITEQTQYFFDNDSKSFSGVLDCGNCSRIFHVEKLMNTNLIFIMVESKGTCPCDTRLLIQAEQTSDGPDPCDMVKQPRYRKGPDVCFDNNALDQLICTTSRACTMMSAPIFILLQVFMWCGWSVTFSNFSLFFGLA

By IC50 is commonly meant the concentration at which inhibition is half-maximal. Broadly, the melting point is the temperature, or range, at which the solid turns liquid. In turn, `Cl.O=C(O)C1NCC12CCCCC2` (racemic) [(±)-2-Aza-spiro[3.5]nonane-1-carboxylic acid hydrochloride] gave a melting point of 163 to 165 °C. For the same compound, in data set [1], the IC50 came out at 1.5 µM.

`O=C(O)C1CNCC12CCCCC2` (racemic) [(±)-2-Aza-spiro[4.5]decane-4-carboxylic acid hydrochloride]: the IC50 in data set [1] was 0.35 µM.

`Cl.O=C(O)[C@H]1CNCC12CCCCC2` [(R)-2-Aza-spiro[4.5]decane-4-carboxylic acid hydrochloride]: the IC50 in data set [1] turned out to be 0.16 µM. In addition, the “percent of maximum possible effect (MPE)” value in data set [2] (1 hour postdose) is on record as 53%; in data set [2] (2 hours postdose) it was 4.6%.

On to `O=C(O)[C@@H]1CNCC12CCCCC2` [(S)-2-Aza-spiro[4.5]decane-4-carboxylic acid hydrochloride], for which, in data set [1], the IC50 was > 10 µM.

In the case of `O=C(O)C1CNCC12C1CCCC2CCC1` (stereo not drawn) [Spiro[bicyclo[3.3.1]nonane-9,3′-pyrrolidine]-4′-carboxylic acid], the IC50 in data set [1] came to 0.57 µM.

Take `O=C(O)C1CNCC12C1CC3CC(C1)CC2C3` (stereo not drawn) [Spiro[pyrrolidine-3,2′-tricyclo[3.3.1.1^3,7]decane]-4-carboxylic acid]: the IC50 in data set [1] is 0.42 µM.
